# Experimental data published in patent publication US12527837B2, “Peptide for use in the prevention and/or treatment of a disease caused by a virus affecting the respiratory tract” (priority 2020, dated 2026).
# Read-outs that look alike come from different tables or passages of the source. No end group written: not given here.
# What was measured:
# [1] = tested on: standardised antigens from H1N1 virus; assay: Haemagglutination Inhibition Assay (HAI) with standardised antigens of influenza virus subtype H1N1; assay type: cell-based; conditions: for activity of lysine-acetylated derivatives against the influenza virus compared with the parent peptides of example 2.1: HAI with standardised antigens
# [2] = tested on: live virus from subtype H3N2 of influenza virus; assay: HAI with live influenza virus subtype H3N2; assay type: cell-based; conditions: live virus 4 HAU/25 μl; 1.5% v/v turkey red blood cells; FIG. 4B
# [3] = tested on: live virus from subtype H1N1 of influenza virus; assay: HAI with live influenza virus subtype H1N1; assay type: cell-based; conditions: live virus 4 HAU/25 μl; 1.5% v/v turkey red blood cells; FIG. 4A
# [4] = tested on: human coronavirus HcoV-OC43; assay: HAI with heat-inactivated viral lysate of HcoV-OC43; assay type: cell-based; conditions: heat-inactivated viral lysate 4 UHA/25 μl; 1.5% v/v turkey RBC; FIG. 5
# [5] = tested on: human coronavirus SARS-CoV-2; assay: HAI with heat-inactivated viral lysate of SARS-CoV-2; assay type: cell-based; conditions: heat-inactivated viral lysate 4 UHA/25 μl; 1.5% v/v turkey RBC; FIG. 5
# measles virus = assay: HAI with heat-inactivated viral lysate of measles virus; assay type: cell-based; conditions: heat-inactivated viral lysate 4 UHA/25 μl; 1.5% v/v turkey RBC; FIG. 5
# [6] = MDCK cells, 20 hours, MTS, FIG. 10
# [7] = MDCK cells, 20 hours, MTS, highest concentration tested 1 mg/ml
substance,measurement,setting,value
SSLLEK*GLDG AKKAVGGLGKLGKDAVEDLESVGKGAVHDVKDVLD (SSLLEK(Ac)GLDGAKKAVGGLGKLGKDAVEDLESVGKGAVHDVKDVLD) [SEQ ID No.: 21],activity of lysine-acetylated derivatives against the influenza virus compared with the parent peptides of example 2.1,[1],the same activity
same,activity against the H3N2 subtype of live influenza virus (HAI),[2],had activity
"SSLLEKGLDGAKKAVGGLGKLGKDAVEDLESVGKGAVHDVKDVLD [SEQ ID No.: 3, SSLLEKGLDGAKKAVGGLGKLGKDAVEDLESVGKGAVHDVKDVLD]",peptides that cause significant toxicity in cells,MDCK cells; [6],none
same,cells in the culture that exhibited toxicity,MDCK cells; [7],20%
"LEKGLDGAKKAVGGLGKLGKDAVEDLESVGKGAVHDVKDVLD (LEKGLDGAKKAVGGLGKLGKDAVEDLESVGKGAVHDVKDVLD; LEK-42) [SEQ ID No.: 1, dermcidin fragment]",activity against standardised antigens of H1N1 subtype of influenza virus (inhibiting haemagglutination),"[1]; H1N1 antigens 8 HAU/50 μl, 5% v/v turkey red blood cells, FIG. 2 and FIG. 3",had activity
"SSLLEKGLDGAKKAVGGLGKLGKDAVEDLESVGKGAVHDVKDVLDSVL [SEQ ID No.: 5, SSLLEKGLDGAKKAVGGLGKLGKDAVEDLESVGKGAVHDVKDVLDSVL]",cells in the culture that exhibited toxicity,MDCK cells,20%
same,peptides that cause significant toxicity in cells,MDCK cells,none
LEK*GLDGAKK AVGGLGKLGKDAVEDLESVGKGAVHDVKDVLD (LEK(Ac)GLDGAKKAVGGLGKLGKDAVEDLESVGKGAVHDVKDVLD) [SEQ ID No.: 19],activity of lysine-acetylated derivatives against the influenza virus compared with the parent peptides of example 2.1,[1],the same activity
LEK*GLDGAKK AVGGLGKLGKDAVEDLESVGKGAVHDVKDVLDSVL (LEK(Ac)GLDGAKKAVGGLGKLGKDAVEDLESVGKGAVHDVKDVLDSVL) [SEQ ID No.: 20],activity of lysine-acetylated derivatives against the influenza virus compared with the parent peptides of example 2.1,[1],the same activity
same,activity against the H1N1 subtype of live influenza virus (HAI),[3],had activity
same,activity against the H3N2 subtype of live influenza virus (HAI),[2],had activity
SSLLEK*GLDG AKKAVGGLGK LGKDA (SSLLEK(Ac)GLDGAKKAVGGLGKLGKDA) [SEQ ID No.: 28],activity of lysine-acetylated derivatives against the influenza virus compared with the parent peptides of example 2.1,[1],the same activity
SSLLEK*GLDG AKKAVGGLGKLGKDAVEDLESVGKGAVHDVKDVLDSV (SSLLEK(Ac)GLDGAKKAVGGLGKLGKDAVEDLESVGKGAVHDVKDVLDSV) [SEQ ID No.: 22],activity against the H1N1 subtype of live influenza virus (HAI),[3],had activity
same,activity against the H3N2 subtype of live influenza virus (HAI),[2],had activity
same,activity against HcoV-OC43 (preventing adhesion of the virus to RBCs),[4],active
same,activity against SARS-CoV-2 (preventing adhesion of the virus to RBCs),[5],active
same,activity against measles virus (preventing adhesion of the virus to RBCs),measles virus,active
SSLLEK*GLDG AKKAVGGLGKLGKDAVEDLESVGKGAVHDVKDVLDSVL (SSLLEK(Ac)GLDGAKKAVGGLGKLGKDAVEDLESVGKGAVHDVKDVLDSVL) [SEQ ID No.: 23],activity of lysine-acetylated derivatives against the influenza virus compared with the parent peptides of example 2.1,[1],the same activity
same,activity against the H1N1 subtype of live influenza virus (HAI),[3],had activity
same,activity against the H3N2 subtype of live influenza virus (HAI),[2],had activity
same,activity against HcoV-OC43 (preventing adhesion of the virus to RBCs),[4],active
same,activity against SARS-CoV-2 (preventing adhesion of the virus to RBCs),[5],active
same,activity against measles virus (preventing adhesion of the virus to RBCs),measles virus,active
LEK*GLDGAKK AVGGLGKLGKDAVEDLESVGKGAVHDVKDVL (LEK(Ac)GLDGAKKAVGGLGKLGKDAVEDLESVGKGAVHDVKDVL) [SEQ ID No.: 29],activity of lysine-acetylated derivatives against the influenza virus compared with the parent peptides of example 2.1,[1],the same activity
"LEKGLDGAKKAVGGLGKLGKDAVEDLESVGKGAVHDVKDVLDSVL [SEQ ID No.: 2, LEKGLDGAKKAVGGLGKLGKDAVEDLESVGKGAVHDVKDVLDSVL]",peptides that cause significant toxicity in cells,MDCK cells; [6],none
same,cells in the culture that exhibited toxicity,MDCK cells; [7],20%
"RRKKAAVALLPAVLLALLAP [EB, RRKKAAVALL PAVLLALLAP, reference compound]",cytotoxicity observed in the culture,MDCK cells,total cell destruction
same,cytotoxicity of the cells in the culture,MDCK cells,50%
